# Experimental data taken from publication PMC10714400, “Antimicrobial Peptide–Peptoid Hybrids with and without Membrane Disruption” (ACS Infectious Diseases, 2023).
# Where a SMILES comes first, the peptide text is derived from it. [ ]: non-standard residue; d: D form. Nleu = CC(C)CNCC(=O)O; Nlys = NCCCCNCC(=O)O
# Key:
# A. baumannii ATCC19606 = test system: A. baumannii ATCC19606
# Procedure: (§1) Antimicrobial activity was assayed for all the peptide–peptoids against P. aeruginosa PAO1, K. pneumoniae NCTC418, E. coli W3110, A. baumannii ATCC 19606, methicillin-resistant S. aureus COL (MRSA), and for selected peptides on P. aeruginosa PA14 and the polymyxin-B-resistant derivatives PA14 4.13, PA14 4.18, PA14 2P4, as well as the clinical isolates ZEM-1A and ZEM9A, K. pneumoniae OXA-48, S. aureus Newman, Enterobacter cloacae, Stenotrophomonas maltophilia, Burkholderia cenocepacia, and Staphylococus epidermidis. To determine the Minimal Inhibitory Concentration (MIC), the Broth Microdilution method was used.[72] A colony of bacteria was picked and grown in LB medium overnight at 37 °C.
# (§2) To each well was finally added 4 μL of the diluted bacterial suspension (see above), corresponding to approximately 5 × 10^5 CFU. For each test, two columns of the plate were kept for sterility control (medium only), growth control (medium with bacterial inoculum, no compound). The positive control, Polymyxin B (starting with a concentration of 16 μg/mL) in MH medium with bacterial inocula, was introduced in the two lines of the plate. The plates were incubated at 37 °C for ca. 18 h under static conditions. Next, 15 μL of 3-(4,5-dimethylthiazol-2-yl)-2,5-diphenyltetrazolium bromide (MTT)[73] (1 mg/mL in sterilized MilliQ deionized water) were added to each well, and the plates were incubated for 20–30 min at room temperature. The minimal inhibitory concentration (MIC) was defined as the lowest concentration of the compound that inhibits the visible growth of the tested bacteria (yellow) with the unaided eye.
# PA14 4.18 (pmrB) = settings: CSV; […] MH at pH 8.5
# Procedure: as §1, §2
# PA14 4.13 (phoQ) = settings: CSV; […] MH at pH 8.5
# Procedure: as §1, §2
# P. aeruginosa PAO1 = test system: P. aeruginosa PAO1
# Procedure: as §1, §2
# S. aureus COL (MRSA) = test system: S. aureus COL (MRSA)
# Procedure: as §1, §2
# E. coli W3110 = test system: E. coli W3110
# Procedure: as §1, §2
# K. pneumoniae NCTC418 = test system: K. pneumoniae NCTC418
# Procedure: as §1, §2
# PA14 2P4 (pmrB) = settings: CSV; […] MH at pH 8.5
# Procedure: as §1, §2
# [1] = test system: human red blood cells (hRBC); assay: Minimum hemolytic concentration (MHC); type: cell-based
# Text: We also measured minimal hemolysis concentrations (MHC) on human red blood cells by serial 2-fold dilution as an indication of toxicity against eukaryotic cells (Table 1).
# S. aureus Newman = settings: Table S3; […] MH at pH 8.5
# Procedure: as §1
# as §2, with “The plates were incubated at 37 °C for ca. 18 h under static conditions.” left out
# P. aeruginosa PA14 = settings: Table S3; […] MH at pH 8.5, 16-20 hours at 37 °C
# Procedure: as §1
# as §2, with “The plates were incubated at 37 °C for ca. 18 h under static conditions.” left out
# [2] = Lipid vesicle leakage assay; settings: 10 mM TRIS, 107 mM NaCl, pH 7.4
# Procedure: (c) Vesicle leakage assay for a selection of compounds.
# EYPG - EB11 1 EYPC - EB11
# Figure S2: Vesicle leakage experiments using 5(6)-carboxyfluorescein induced by peptides. EYPG and EYPC
# compound was added after 45 sec. After 240 seconds, 30 µL Triton X-100 1.2% was added for full release of […]
# [3] = Circular dichroism, α-helical content; type: physicochemical; settings: 0.1 mg/mL; for CD %α with 5 mM DPC: 10 mM phosphate buffer pH 7.4, 5 mM DPC; for CD %α with 20% TFE: 10 mM phosphate buffer pH 7.4, 20% TFE
smiles,measurement,setting,value
"CC(C)C[C@H](NC(=O)CN(CC(C)C)C(=O)[C@H](CCCCN)NC(=O)CNCCCCN)C(=O)N(CCCCN)CC(=O)N[C@@H](CC(C)C)C(=O)N(CC(=O)N[C@@H](CCCCN)C(=O)N(CC(=O)N[C@@H](CC(C)C)C(=O)N(CC(N)=O)CC(C)C)CC(C)C)CC(C)C [EB10, kKlLkLlKlLl] (H-[Nlys]K[Nleu]L[Nlys]L[Nleu]K[Nleu]L[Nleu]-NH2)","MIC A. baumannii ATCC19606, full MH at pH 7.4","A. baumannii ATCC19606; ATCC19606, 4 h, pH 7.4",>32 ug/mL
same,"MIC A. baumannii ATCC19606, full MH at pH 8.5","A. baumannii ATCC19606; ATCC19606, 4 h, pH 8.5",>32 ug/mL
same,MIC A. baumannii ATCC19606 […] 7.4,"A. baumannii ATCC19606; Table S2, […] MH, pH 7.4",16 mg/L
same,MIC A. baumannii ATCC19606 Full MH 7.4,"A. baumannii ATCC19606; Table S2, full MH, pH 7.4",> 32 mg/L
same,MIC A. baumannii ATCC19606 Full MH 8.5,"A. baumannii ATCC19606; Table S2, full MH, pH 8.5",> 32 mg/L
same,"MIC P. aeruginosa PA14 4.18, […] MH at pH 8.5",PA14 4.18 (pmrB),8 ug/mL
same,"MIC P. aeruginosa PA14 4.13, […] MH at pH 8.5",PA14 4.13 (phoQ),4 ug/mL
same,"MIC P. aeruginosa PAO1, full MH at pH 7.4","P. aeruginosa PAO1; PAO1, 4 h, pH 7.4",>32 ug/mL
same,"MIC P. aeruginosa PAO1, full MH at pH 8.5","P. aeruginosa PAO1; PAO1, 4 h, pH 8.5",>32 ug/mL
same,MIC P. aeruginosa PAO1 […] 7.4,"P. aeruginosa PAO1; Table S2, […] MH, pH 7.4",4 mg/L
same,MIC P. aeruginosa PAO1 […] 8.5,"P. aeruginosa PAO1; Table S2, […] MH, pH 8.5",4 mg/L
same,MIC P. aeruginosa PAO1 Full MH 7.4,"P. aeruginosa PAO1; Table S2, full MH, pH 7.4",> 32 mg/L
same,MIC P. aeruginosa PAO1 Full MH 8.5,"P. aeruginosa PAO1; Table S2, full MH, pH 8.5",> 32 mg/L
same,"MIC S. aureus COL (MRSA), full MH at pH 7.4","S. aureus COL (MRSA); COL, 4 h, pH 7.4",>32 ug/mL
same,MIC S. aureus COL (MRSA) […] 7.4,"S. aureus COL (MRSA); Table S2, […] MH, pH 7.4",32 mg/L
same,MIC S. aureus COL (MRSA) […] 8.5,"S. aureus COL (MRSA); Table S2, […] MH, pH 8.5",8 mg/L
same,MIC S. aureus COL (MRSA) Full MH 7.4,"S. aureus COL (MRSA); Table S2, full MH, pH 7.4",> 32 mg/L
same,MIC S. aureus COL (MRSA) Full MH 8.5,"S. aureus COL (MRSA); Table S2, full MH, pH 8.5",32 mg/L
same,"MIC E. coli W3110, […] MH at pH 8.5","E. coli W3110; CSV, […] MH at pH 8.5",3 ug/mL
same,"MIC E. coli W3110, full MH at pH 7.4","E. coli W3110; CSV, full MH at pH 7.4",>32 ug/mL
same,MIC E. coli W3110 […] 7.4,"E. coli W3110; Table S2, […] MH, pH 7.4",2 mg/L
same,MIC E. coli W3110 […] 8.5,"E. coli W3110; Table S2, […] MH, pH 8.5",2 to 4 mg/L
same,MIC E. coli W3110 Full MH 7.4,"E. coli W3110; Table S2, full MH, pH 7.4",> 32 mg/L
same,MIC E. coli W3110 Full MH 8.5,"E. coli W3110; Table S2, full MH, pH 8.5",32 mg/L
same,MIC E. coli W3110 […],"E. coli W3110; diluted MH ([…] MH, pH 8.5) per Table 1 footnote b, 16–20 h at 37 °C",2 to 4 mg/L
same,"MIC K. pneumoniae NCTC418, full MH at pH 7.4","K. pneumoniae NCTC418; NCTC418, 4 h, pH 7.4",>32 ug/mL
same,"MIC K. pneumoniae NCTC418, full MH at pH 8.5","K. pneumoniae NCTC418; NCTC418, 4 h, pH 8.5",>32 ug/mL
same,MIC K. pneumoniae NCTC418 […] 7.4,"K. pneumoniae NCTC418; Table S2, […] MH, pH 7.4",> 32 mg/L
same,MIC K. pneumoniae NCTC418 […] 8.5,"K. pneumoniae NCTC418; Table S2, […] MH, pH 8.5",32 mg/L
same,MIC K. pneumoniae NCTC418 Full MH 7.4,"K. pneumoniae NCTC418; Table S2, full MH, pH 7.4",> 32 mg/L
same,MIC K. pneumoniae NCTC418 Full MH 8.5,"K. pneumoniae NCTC418; Table S2, full MH, pH 8.5",> 32 mg/L
same,"MIC P. aeruginosa PA14 2P4, […] MH at pH 8.5",PA14 2P4 (pmrB),8 ug/mL
same,Hemolysis,[1],none of them showed any measurable hemolysis
same,MHC,[1],>2000 µg/mL
same,MIC S. aureus Newman,S. aureus Newman,8 mg/L
same,MIC P. aeruginosa PA14,P. aeruginosa PA14,4 mg/L
same,Vesicle leakage activity on EYPC vesicles,[2]; egg yolk phosphatidyl choline vesicles,no activity
same,Vesicle leakage activity on EYPG vesicles,[2]; fluorescein-loaded anionic EYPG vesicles,weak or no vesicle leakage activity
same,CD %α with 5 mM DPC,"[3]; DichroWeb, Contin-LL",11/11%
same,CD %α with 20% TFE,"[3]; DichroWeb, Contin-LL",11/11%
same,CD %α with 5 mM DPC,[3]; Table S2,11%
same,CD %α with 20% TFE,[3]; Table S2,11%
